Test results from patent US10501473B2, “Fused heterocyclic ring compounds and method of treating retinal disease using same” (THE INDUSTRY & ACADEMIC COOPERATION IN CHUNGNAM NATIONAL …, priority 2014, dated 2019).
Where “and” joins values, the source holds several entries; their conditions need not be identical. Equal entries are not always repeated.

What was measured:
[1] = system: retinal degeneration rabbit model; assay: Drug efficacy by ERG (electroretinography) 1; type: in vivo
Description: The normal rabbit was anesthetized, which was adapted for 20 minutes in a dark room. Retinal potential difference was measured by ERG equipment. Electroretinography is a method to observe the response of photoreceptor cells with two light intensities. Particularly, A and B waves were measured from 100 to 10000 mcd, and the retinal potential difference measured at 3000 mcd. Drug efficacy was evaluated by observing the photoreceptor cells, for which the stronger response to wave A was selected.
Evaluation of candidate substances for dry macular degeneration was performed using a retinal degeneration rabbit model. The compounds of Comparative Examples 2 and 3 were used as comparative compounds. […] The compound of Comparative Example 3 was orally administered once a day (10 mg/rabbit, dissolved in saline).

[2] = Solubility in water of doxycycline forms; type: physicochemical; settings: listed as MH
[3] = target: T1, RIPK1 (receptor-interacting serine/threonine-protein kinase 1) (Homo sapiens (Human), UniProt Q13546); assay: RIPK1 inhibitory activity, autophosphorylation of immuno-precipitated RIPK1 with [32P]γ-ATP; type: biochemical; settings: compound 100 μM; remaining RIPK1 phosphorylation
In short: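 RIPK1 overexpressed in HEK293, immunoprecipitated, preincubated with compound 15 min at 24 °C in HEPES pH 7.6 kinase buffer with Mg2+/Mn2+. Autophosphorylation run 30 min at 30 °C with 100 μM ATP plus [32P]γ-ATP, resolved by SDS-PAGE and quantified by phosphorimaging.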

[4] = system: RGC-5 (rat ganglion cell); assay: Retinal nerve protection under oxygen-glucose deprivation (OGD), LDH assay; type: cell-based; settings: RGC-5, OGD 15 hours, compound 20 μM, DMSO control = 100%
In short: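 RGC-5 cells switched to glucose-free DMEM with compound (20 μM) or 0.1% DMSO and held 15 h at 37° C under anaerobic gas (10% H2, 5% CO2, 85% N2). Cell death from released LDH (formazan, 490 nm), scaled with OGD control as 100% and normal-medium cells as 0%; triplicate wells, experiments in triplicate.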

[5] = target: T1, RIPK1 (receptor-interacting serine/threonine-protein kinase 1); assay: IC50 to RIPK1, immuno-precipitated enzyme with [32P]γ-ATP; type: biochemical; settings: 10-0.05 μM, 100 μM ATP
Description: RIPK1 enzyme immuno-precipitated in HEK293 (Human Embryonic Kidney 293) cell lysate was used as a kinase. The experiment was performed according to the method described in Cell. 12; 137(6):1112-23(2009).
RIPK1 protein was over-expressed in HEK293 cell line, to which lysis buffer (50 mM Tris-Cl [pH 8.0], 150 mM NaCl, 1 mM EDTA, 1% NP-40, 0.4 mM phenylmethylsulfonyl fluoride (PMSF)) was added for cell lysis. Centrifugation was performed at 13,000 rpm for 10 minutes to separate the supernatant. RIPK1 monoclonal antibody (610459, BD Bioscience) and A/G agarose beads (sc-2003, Santa Cruz Biotechnology) were added thereto, followed by immuno-precipitation in a 4° C. rotator for 12 hours.
The compounds of examples of the invention were diluted at the different concentrations of 10 μM˜0.05 μM (10, 5, 1, 0.5, 0.1, 0.05 uM) and mixed with the immuno-precipitated RIPK1 enzyme, followed by reaction in a 24° C. constant-temperature water bath for 15 minutes. Additional reaction was induced for 30 minutes at 30° C. after 100 μM of ATP and 10 μCi[^32P] γ-ATP were added thereto. The reaction mixture was washed with buffer once, to which protein loading buffer was added, followed by heating at 100° C. for 3 minutes. The reaction mixture was then loaded on 8% SDS-PAGE gel. Radioactive image of the phosphorylated RIPK1 was detected with FLA-7000 (GE healthcare). The image Quant TL program was used for the quantification. Based on the results, IC50 of the compound was calculated by using sigmaplot 10.0 program.

[6] = system: dry macular degeneration rat model; assay: Retinal cell protection by instillation, sodium iodate rat model, H&E staining; type: in vivo; settings: SI ip 50 mg/kg, eye drops 50 μl twice a day, FIG. 2
Description: From 3 days before the administration of sodium iodate (SI) to the 8-week-old dry macular degeneration rat model, the compound of the invention was instillated twice a day (50 μl/each eye drop instillation) and SI (ip, 50 mg/kg) was administered once. Additionally, the compound was instillated twice a day for 7 days. 7 days later, the eyeballs were extracted, followed by H&E staining to investigate retinal cell protection effect (n=3, 6 eyes). FIG. 1 is a schematic diagram illustrating the construction of the dry macular degeneration rat model and the eye drop instillation of the compounds of the invention.
The eyeballs were extracted from the dry macular degeneration rat model constructed by the same manner as described in FIG. 1, followed by histostaining.
To measure the survival rate (%) of retinal pigment epithelial cells, the eyeballs extracted from the experimental rats were fixed in 4% glutaraldehyde solution for 4 hours and embedded in paraffin. Tissue sections were prepared in 5 μm thickness, followed by H&E (Hematoxylin and Eosin) staining. Photomicrographs were taken of 2-3 different areas within the RPE (retinal pigment epithelium) layer on 100× optical microscope (Leica), and the number of stained cells was counted. The number of RPE cells in the normal rat group was regarded as 100%, based on which the survival rate was calculated.

[7] = system: RGC-5 (rat ganglion cell-5); assay: Retinal neuron protection under necroptosis inducing (TCZ; TNFα+cycloheximide+zVAD) condition, LDH assay; type: cell-based; settings: RGC-5, TCZ 15 hours, compound 20 μM, DMSO control = 100%
Description: The following experiment was performed to evaluate the retinal neuron protection effect of the compounds of the invention under necroptosis inducing condition.
The retinal ganglion cell line RGC-5 (rat ganglion cell-5) was cultured in DMEM (Dulbecco's modified Eagle's medium) supplemented with 10% FBS (fetal bovine serum) and 1% penicillin/streptomycin. The cells were distributed in a 96-well plate at the density of 8×10^3 cells/well, followed by culture in a 37° C., CO2 incubator for 12 hours. The medium supplemented with TNFα (10 ng/ml), cycloheximide (10 μg/ml), and zVAD (10 μM) (TCZ) was treated with DMSO (0.1%) alone (control) or with the compounds of the invention (20 μM), followed by additional culture in a 37° C., CO2 incubator for 15 hours to induce cell death.
The level of cell death was measured by LDH (lactate dehydrogenase, Roche) assay. The level of the control LDH under TCZ condition was regarded as 100%, and the level of LDH in the cell group cultured in normal medium (10% FBS, DMEM) for the same time was used for the measurement of the relative rate of cell death. The compounds of examples of the invention were treated to wells, each compound for three wells, and then each experiment was performed in triplicate.

[8] = system: dry macular degeneration rabbit model; assay: Protection against retinal layer thickness reduction by instillation 2 (ONL thickness); type: in vivo; settings: FIG. 8
Description: The eyeballs were extracted from the dry macular degeneration rabbit model used in Experimental Example 7, and the thickness of ONL was measured.

retina of rats = settings: retinal detachment; cited from earlier work

T1 sequence (Q13546 whole entry, species assumed): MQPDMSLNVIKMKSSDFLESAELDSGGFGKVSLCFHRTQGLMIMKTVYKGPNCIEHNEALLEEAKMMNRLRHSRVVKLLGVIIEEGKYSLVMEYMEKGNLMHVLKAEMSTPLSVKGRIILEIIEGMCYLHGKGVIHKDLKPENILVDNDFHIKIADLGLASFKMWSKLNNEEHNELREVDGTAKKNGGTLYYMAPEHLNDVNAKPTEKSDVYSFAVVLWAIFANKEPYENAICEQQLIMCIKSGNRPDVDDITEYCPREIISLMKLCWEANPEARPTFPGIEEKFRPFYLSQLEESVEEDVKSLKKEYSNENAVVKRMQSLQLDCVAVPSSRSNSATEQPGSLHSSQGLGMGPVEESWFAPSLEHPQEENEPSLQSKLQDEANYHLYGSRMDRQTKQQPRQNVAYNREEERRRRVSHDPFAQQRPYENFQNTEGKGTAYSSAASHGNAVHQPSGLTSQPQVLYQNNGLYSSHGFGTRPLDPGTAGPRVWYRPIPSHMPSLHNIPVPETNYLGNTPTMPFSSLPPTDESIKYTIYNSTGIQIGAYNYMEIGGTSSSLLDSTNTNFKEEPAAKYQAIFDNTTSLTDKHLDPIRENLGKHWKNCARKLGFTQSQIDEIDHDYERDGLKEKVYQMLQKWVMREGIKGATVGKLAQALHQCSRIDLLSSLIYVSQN

SMILES	activity at 100 µM [3] [%]	Death of retinal nerve cell (%) [4]	IC50 [5] [nM]	other results
C[C@H]1c2cccc(O)c2C(=O)C2=C(O)[C@]3(O)C(=O)C(C(N)=O)=C(O)[C@@H](N(C)C)[C@@H]3[C@@H](O)[C@@H]21 [Comparative Example3-MH, doxycycline]	–	–	–	response compared to normal (100%) ([1]; ERG, FIG. 11, listed as 3-MH): 74.1%; response compared to normal (100%) ([1]; ERG, FIG. 11, listed as Comparative Example 3-MH): 74.1%; Wave ratio ([1]; SI model, ERG wave A after one week, eye drops 100 μl twice a day, Comparative Example 3 oral 10 mg/rabbit once a day, Normal = 1.00): 0.74; Drug efficacy (%) ([1]; SI model, ERG, Normal = 100, Veh. = 0): 46%; solubility in water [2]: not dissolved in water
O=C(c1cc2c(-c3cccc(F)c3)cccc2s1)N1CCOCC1 [Example 36, (4-(3-fluorophenyl)benzo[b]thiophene-2-yl)(morpholino)methanone]	4 ± 2.8	58.0 ± 3.8%	17.7	–
CN1C(=O)NC(Cc2c[nH]c3c(Cl)cccc23)C1=O (stereo not shown) [Comparative Example 2, 5-((7-chloro-1H-indole-3-yl)methyl)-3-methylimidazolidine-2,4-dione, reference compound]	–	73.5% and 73.5 ± 10.3%	–	retina degeneration by histostaining [6]: retina degeneration was not observed
O=C(c1cc2c(-c3ccc(F)cc3)cccc2s1)N1CCOCC1 [Example 39, (4-(4-fluorophenyl)benzo[b]thiophene-2-yl)(morpholino)methanone]	3.7 ± 2.6	46.2 ± 0.8%	193	Death of retinal nerve cell (%) [7]: 74.9 ± 9.1%; retina degeneration by histostaining [6]: retina degeneration was not observed; retinal layer thickness protection effect [8]: 70˜80% and 70-80%
O=C(c1cc2c(-c3ccc(F)cc3)cccc2s1)N1CCCC1 [Example 35, (4-(4-fluorophenyl)benzo[b]thiophene-2-yl)(pyrrolidine-1-yl)methanone]	3.5 ± 2.1	90.0 ± 3.3%	360	Death of retinal nerve cell (%) [7]: 89.2 ± 8.2%
O=C(c1cc2c(-c3ccsc3)cccc2s1)N1CCOCC1 [Example 76, morpholino(4-(thiophene-3-yl)benzo[b]thiophene-2-yl)methanone]	1.5 ± 0.7	–	61.2	–
O=C(c1cc2c(-c3ccoc3)cccc2s1)N1CCOCC1 [Example 75, (4-(furan-3-yl)benzo[b]thiophene-2-yl)(morpholino)methanone]	3.5 ± 3.5	41.7 ± 7.0%	73.4	–
O=C(c1cc2c(-c3ccc(F)cc3)cccc2s1)N1CCCOCC1 [Example 52, (4-(4-fluorophenyl)benzo[b]thiophene-2-yl) (1,4-oxazepane-4-yl)methanone]	5.5 ± 4.9	52.8 ± 4.4%	8170	Death of retinal nerve cell (%) [7]: 80.8 ± 2.8%
O=C(c1cc2c(-c3cccs3)cccc2s1)N1CCOCC1 [Example 74, morpholino(4-(thiophene-2-yl)benzo[b]thiophene-2-yl)methanone]	4	51.4 ± 10.3%	65.6	–
O=C(c1cc2c(-c3ccc(F)cc3)cccc2s1)N1CCSCC1 [Example 51, (4-(4-fluorophenyl)benzo[b]thiophene-2-yl)(thiomorpholino)methanone]	2.5 ± 0.7	44.7 ± 6.3%	217	–
CN1C(=O)C(Cc2c[nH]c3ccccc23)NC1=S (stereo not shown) [Comparative Example 1, 5-((1H-indole-3-yl)methyl)-3-methyl-2-thioxothioxoimidazolidine-4-one, reference compound]	–	89.5% and 89.5 ± 10.5%	95.5	retina degeneration by histostaining [6]: retina degeneration was not observed; phosphorylation of RIPK1 in the retina (retina of rats): phosphorylation was reduced; photoreceptor degeneration (retina of rats): photoreceptor degeneration was also protected
O=C(c1cc2c(-c3ccc(F)cc3F)cccc2s1)N1CCOCC1 [Example 63, (4-(2,4-difluorophenyl)benzo[b]thiophene-2-yl)(morpholino)methanone]	1.5 ± 0.7	48.3 ± 13.7%	230	–
O=C(c1cc2c(-c3ccc(F)cc3)ccnc2s1)N1CCOCC1 [Example 4, (4-(4-fluorophenyl)thieno[2,3-b]pyridine-2-yl)(morpholino)methanone]	3 ± 1.4	57.8 ± 8.9%	1120	–
O=C(c1cc2c(-c3ccccc3F)cccc2s1)N1CCOCC1 [Example 30, (4-(2-fluorophenyl)benzo[b]thiophene-2-yl)(morpholino)methanone]	0.4 ± 0.1	51.0 ± 5.9%	102	–
